As a reminder, the EC50 is the concentration giving half of the maximal effect.

The values below come from US12528801B2 (Givaudan SA, priority 2019, dated 2026).

Structures are written as SMILES. A value given as a limit tells only on which side of the number the result lay.

This test deals with T1, hTRPM8 (Homo sapiens, UniProt Q7Z2W7).
T1 construct: expressed in transfected cells
In words: Assay on TRPM8 modulators: calcium imaging (Fluo-4, Flexstation) in HEK293 cell line stably expressing hTRPM8. As to conditions: HEK293 cells stably expressing hTRPM8; calcium influx, Fluo-4, Flexstation 3; sigmoidal dose-response fit. In kind it is cell-based. In outline: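 HEK293 cells stably expressing hTRPM8 were loaded with Fluo-4 AM plus probenecid and kept in HEPES buffer, pH 7.4. Calcium influx to serially diluted compounds was recorded for 120 s. Maximal activation was referenced to solvent control and 31.6 μM menthol, with EC values from sigmoidal dose-response fits.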

T1 sequence (Q7Z2W7 whole entry): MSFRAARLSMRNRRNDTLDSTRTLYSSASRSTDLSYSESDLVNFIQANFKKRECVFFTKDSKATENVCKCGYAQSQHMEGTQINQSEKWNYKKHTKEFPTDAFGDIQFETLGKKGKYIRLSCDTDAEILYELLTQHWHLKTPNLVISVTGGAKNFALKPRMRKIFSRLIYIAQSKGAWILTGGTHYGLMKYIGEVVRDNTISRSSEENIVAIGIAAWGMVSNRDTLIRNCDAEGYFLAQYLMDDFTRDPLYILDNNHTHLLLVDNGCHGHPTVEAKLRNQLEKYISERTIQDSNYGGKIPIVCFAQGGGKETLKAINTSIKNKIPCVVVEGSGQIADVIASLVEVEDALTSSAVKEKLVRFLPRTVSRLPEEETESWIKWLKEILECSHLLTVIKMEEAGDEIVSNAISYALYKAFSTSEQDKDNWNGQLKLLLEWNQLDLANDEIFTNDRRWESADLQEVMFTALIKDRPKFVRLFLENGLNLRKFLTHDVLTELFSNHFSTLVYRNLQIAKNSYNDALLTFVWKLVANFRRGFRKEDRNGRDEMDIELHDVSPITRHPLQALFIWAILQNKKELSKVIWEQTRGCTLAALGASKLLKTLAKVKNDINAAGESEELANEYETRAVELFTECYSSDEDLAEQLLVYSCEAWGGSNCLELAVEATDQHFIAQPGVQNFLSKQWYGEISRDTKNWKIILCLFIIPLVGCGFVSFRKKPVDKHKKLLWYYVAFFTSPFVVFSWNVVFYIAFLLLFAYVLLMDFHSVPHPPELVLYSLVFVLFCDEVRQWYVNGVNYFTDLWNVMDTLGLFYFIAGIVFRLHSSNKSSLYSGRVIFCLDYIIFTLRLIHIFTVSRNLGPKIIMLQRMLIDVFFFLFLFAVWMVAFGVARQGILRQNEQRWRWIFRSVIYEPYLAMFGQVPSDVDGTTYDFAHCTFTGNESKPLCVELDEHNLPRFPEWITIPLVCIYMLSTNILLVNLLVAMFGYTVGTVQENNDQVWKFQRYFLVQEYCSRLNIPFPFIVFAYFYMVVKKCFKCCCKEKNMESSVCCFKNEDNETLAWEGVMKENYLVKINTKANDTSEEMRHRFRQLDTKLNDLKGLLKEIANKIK

Take `CSC(C)C(=O)N1CCCCC1c1nc(-c2ccc(C(F)(F)F)o2)c[nH]1` (stereo not shown) [Compound 108, 2-(methylthio)-1-(2-(4-(5-(trifluoromethyl)furan-2-yl)-1H-imidazol-2-yl)piperidin-1-yl)propan-1-one]: the EC50 is below 0.05 µM. Under `CSC(C)C(=O)N1CCCCC1c1nc(-c2ccc(C(F)(F)F)s2)c[nH]1` (stereo not shown) [Compound 109, 2-(methylthio)-1-(2-(4-(5-(trifluoromethyl)thiophen-2-yl)-1H-imidazol-2-yl)piperidin-1-yl)propan-1-one] stands below 0.05 µM; under `CSC(C)C(=O)N1CCCCC1c1nc(-c2csc(C)c2)c[nH]1` (stereo not shown) [Compound 110, 2-(methylthio)-1-(2-(4-(5-methylthiophen-3-yl)-1H-imidazol-2-yl)piperidin-1-yl)propan-1-one], below 0.05 µM.

On to `CSC(C)C(=O)N1CCCCC1c1nc(-c2cccc(C)c2)c[nH]1` (stereo not shown) [Compound 111, 2-(methylthio)-1-(2-(4-(m-tolyl)-1H-imidazol-2-yl)piperidin-1-yl)propan-1-one], for which the EC50 was in the range of 0.05 to 0.3 µM. For `CSC(C)C(=O)N1CCCCC1c1nc(-c2ccccc2C)c[nH]1` (stereo not shown) [Compound 112, 2-(methylthio)-1-(2-(4-(o-tolyl)-1H-imidazol-2-yl)piperidin-1-yl)propan-1-one] the value was 0.05 to 0.3 µM; for `CSC(C)C(=O)N1CCCCC1c1nc(-c2cccnc2)c[nH]1` (stereo not shown) [Compound 113, 2-(methylthio)-1-(2-(4-(pyridin-3-yl)-1H-imidazol-2-yl)piperidin-1-yl)propan-1-one], 0.3 to 1 µM; for `CSC(C)C(=O)N1CCCCC1c1nc(-c2ccncc2)c[nH]1` (stereo not shown) [Compound 114, 2-(methylthio)-1-(2-(4-(pyridin-4-yl)-1H-imidazol-2-yl)piperidin-1-yl)propan-1-one], 0.3 to 1 µM.

With `CSC(C)C(=O)N1CCCCC1c1nc(-c2cncnc2)c[nH]1` (stereo not shown) [Compound 115, 2-(methylthio)-1-(2-(4-(pyrimidin-5-yl)-1H-imidazol-2-yl)piperidin-1-yl)propan-1-one], the EC50 lay within 1 to 35 µM.

As to `CSC(C)C(=O)N1CCCCC1c1nc(-c2ccc3nccnc3c2)c[nH]1` (stereo not shown) [Compound 116, 2-(methylthio)-1-(2-(4-(quinoxalin-6-yl)-1H-imidazol-2-yl)piperidin-1-yl)propan-1-one], the EC50 was 0.3 to 1 µM. For `CSC(C)C(=O)N1CCCCC1c1nc(-c2ccsc2)c[nH]1` (stereo not shown) [Compound 117, 2-(methylthio)-1-(2-(4-(thiophen-3-yl)-1H-imidazol-2-yl)piperidin-1-yl)propan-1-one] the value was 0.05 to 0.3 µM; for `CSCC(=O)N1CCCCC1c1nc(-c2ccccc2)c[nH]1` (stereo not shown) [Compound 118, 2-(methylthio)-1-(2-(4-phenyl-1H-imidazol-2-yl)piperidin-1-yl)ethan-1-one], 0.3 to 1 µM; for `CSC(C)C(=O)N1CCCCC1c1ncc(-c2ccccc2C(F)(F)F)[nH]1` (stereo not shown) [Compound 119, 2-(methylthio)-1-(2-(5-(2-(trifluoromethyl)phenyl)-1H-imidazol-2-yl)piperidin-1-yl)propan-1-one], 0.3 to 1 µM. Take `CSC(C)C(=O)N1CCCCC1c1ncc(-c2ccc(F)c(F)c2F)[nH]1` (stereo not shown) [Compound 120, 2-(methylthio)-1-(2-(5-(2,3,4-trifluorophenyl)-1H-imidazol-2-yl)piperidin-1-yl)propan-1-one]: the EC50 is below 0.05 µM.

Consider `CSC(C)C(=O)N1CCCCC1c1ncc(-c2cc(F)c(F)cc2F)[nH]1` (stereo not shown) [Compound 121, 2-(methylthio)-1-(2-(5-(2,4,5-trifluorophenyl)-1H-imidazol-2-yl)piperidin-1-yl)propan-1-one], for which the concentration for a half-maximal effect (EC50) is below 0.05 µM. For the molecule `CSC(C)C(=O)N1CCCCC1c1ncc(-c2cccc(C(F)(F)F)c2)[nH]1` (stereo not shown) [Compound 122, 2-(methylthio)-1-(2-(5-(3-(trifluoromethyl)phenyl)-1H-imidazol-2-yl)piperidin-1-yl)propan-1-one], the EC50 was 0.05 to 0.3 µM. Under `CSC(C)C(=O)N1CCCCC1c1ncc(-c2ccc(OC(F)(F)F)cc2)[nH]1` (stereo not shown) [Compound 123, 2-(methylthio)-1-(2-(5-(4-(trifluoromethoxy)phenyl)-1H-imidazol-2-yl)piperidin-1-yl)propan-1-one] stands below 0.05 µM; under `CCCc1ccc(-c2cnc(C3CCCCN3C(=O)C(C)SC)[nH]2)cc1` (stereo not shown) [Compound 125, 2-(methylthio)-1-(2-(5-(4-propylphenyl)-1H-imidazol-2-yl)piperidin-1-yl)propan-1-one], below 0.05 µM; under `C=Cc1ccc(-c2cnc(C3CCCCN3C(=O)C(C)SC)[nH]2)cc1` (stereo not shown) [Compound 126, 2-(methylthio)-1-(2-(5-(4-vinylphenyl)-1H-imidazol-2-yl)piperidin-1-yl)propan-1-one], below 0.05 µM.

`CSC(C)C(=O)N1CCCCC1c1nnc(-c2ccc(C)cc2)o1` (stereo not shown) [Compound 128, 2-(methylthio)-1-(2-(5-(p-tolyl)-1,3,4-oxadiazol-2-yl)piperidin-1-yl)propan-1-one]: the EC50 fell in the range of 0.3 to 1 µM. Under `CSC(C)C(=O)N1CCCCCC1c1ncc(-c2ccc(C)cc2)[nH]1` (stereo not shown) [Compound 129, 2-(methylthio)-1-(2-(5-(p-tolyl)-1H-imidazol-2-yl)azepan-1-yl)propan-1-one] stands below 0.05 µM; under `CSC(C)C(=O)N1CCCCC1c1nnc(-c2ccc(C)cc2)[nH]1` (stereo not shown) [Compound 131, 2-(methylthio)-1-(2-(5-(p-tolyl)-4H-1,2,4-triazol-3-yl)piperidin-1-yl)propan-1-one], below 0.05 µM; under `CSC(C)C(=O)N1CCCCC1c1cc(-c2ccc(C)cc2)on1` (stereo not shown) [Compound 132, 2-(methylthio)-1-(2-(5-(p-toly)isoxazol-3-yl)piperidin-1-yl)propan-1-one], 0.05 to 0.3 µM. Take `CSC(C)C(=O)N1CCCCC1c1ncc(-c2ccc(C)cc2)o1` (stereo not shown) [Compound 133, 2-(methylthio)-1-(2-(5-(p-tolyl)oxazol-2-yl)piperidin-1-yl)propan-1-one]: the EC50 is below 0.05 µM. Under `CSC(C)C(=O)N1CCCCC1c1ncc(-c2ccc(C)cc2)s1` (stereo not shown) [Compound 134, 2-(methylthio)-1-(2-(5-(p-tolyl)thiazol-2-yl)piperidin-1-yl)propan-1-one] stands below 0.05 µM. For `CSC(C)C(=O)N1CCC[C@@H]1c1ncc(-c2ccccc2)[nH]1` (stereo partly drawn) [Compound 136, 2-(methylthio)-1-((R)-2-(5-phenyl-1H-imidazol-2-yl)pyrrolidin-1-yl)propan-1-one] the value was 1 to 35 µM; for `CSC(C)C(=O)N1CCCCC1c1nnc(-c2ccccc2)[nH]1` (stereo not shown) [Compound 137, 2-(methylthio)-1-(2-(5-phenyl-4H-1,2,4-triazol-3-yl)piperidin-1-yl)propan-1-one], 0.05 to 0.3 µM; for `CSC(C)C(=O)N1CCCCC1c1ncc(-c2ccccc2)o1` (stereo not shown) [Compound 138, 2-(methylthio)-1-(2-(5-phenyloxazol-2-yl)piperidin-1-yl)propan-1-one], 0.3 to 1 µM. Under `CSC(C)C(=O)N1CSCC1c1ncc(-c2ccc(C)cc2)[nH]1` (stereo not shown) [Compound 139, 2-(methylthio)-1-(4-(5-(p-tolyl)-1H-imidazol-2-yl)thiazolidin-3-yl)propan-1-one] stands 0.05 to 0.3 µM; under `C=C(C)C(C)(C)C(=O)N1CCCCC1c1ncc(-c2ccc(C)cc2)[nH]1` (stereo not shown) [Compound 140, 2,2,3-trimethyl-1-(2-(5-(p-tolyl)-1H-imidazol-2-yl)piperidin-1-yl)but-3-en-1-one], below 0.05 µM. As to `Cc1ccc(-c2cnc(C3CCCCN3C(=O)C(C)(C)C(C)C)[nH]2)cc1` (stereo not shown) [Compound 141, 2,2,3-trimethyl-1-(2-(5-(p-tolyl)-1H-imidazol-2-yl)piperidin-1-yl)butan-1-one], the EC50 was below 0.05 µM.

On to `C=CC(C)(C)C(=O)N1CCCCC1c1ncc(-c2ccc(C)cc2)[nH]1` (stereo not shown) [Compound 142, 2,2-dimethyl-1-(2-(5-(p-tolyl)-1H-imidazol-2-yl)piperidin-1-yl)but-3-en-1-one], for which the EC50 was below 0.05 µM. For `CCC(C)(C)C(=O)N1CCCCC1c1ncc(-c2ccc(C)cc2)[nH]1` (stereo not shown) [Compound 143, 2,2-dimethyl-1-(2-(5-(p-tolyl)-1H-imidazol-2-yl)piperidin-1-yl)butan-1-one], the EC50 was below 0.05 µM. On to `COCC(OC)C(=O)N1CCCCC1c1nc(-c2ccccc2)c[nH]1` (stereo not shown) [Compound 144, 2,3-dimethoxy-1-(2-(4-phenyl-1H-imidazol-2-yl)piperidin-1-yl)propan-1-one], for which the EC50 fell in the range of 1 to 35 µM.

In the case of `CC(C)C(C)C(=O)N1CCCCC1c1nc(-c2ccccc2)c[nH]1` (stereo not shown) [Compound 145, 2,3-dimethyl-1-(2-(4-phenyl-1H-imidazol-2-yl)piperidin-1-yl)butan-1-one], the EC50 is 0.05 to 0.3 µM. For `CSC(C)C(=O)N1CCCCC1c1nc(-c2cc(F)c(C#N)cc2F)c[nH]1` (stereo not shown) [Compound 146, 2,5-difluoro-4-(2-(1-(2-(methylthio)propanoyl)piperidin-2-yl)-1H-imidazol-4-yl)benzonitrile] the value was below 0.05 µM. With `Cc1ccc(-c2cnc(C3CCCCN3C(=O)C(C)N)[nH]2)cc1` (stereo not shown) [Compound 147, 2-amino-1-(2-(5-(p-toly)-1H-imidazol-2-yl)piperidin-1-yl)propan-1-one], the EC50 was in the range of 1 to 35 µM. Take `CC(C(=O)N1CCCCC1c1nc(-c2ccccc2)c[nH]1)C1CCC1` (stereo not shown) [Compound 148, 2-cyclobutyl-1-(2-(4-phenyl-1H-imidazol-2-yl)piperidin-1-yl)propan-1-one]: the EC50 lay within 0.05 to 0.3 µM. For `CCOC(C(=O)N1CCCCC1c1nc(-c2ccccc2)c[nH]1)C1CCCC1` (stereo not shown) [Compound 149, 2-cyclopentyl-2-ethoxy-1-(2-(4-phenyl-1H-imidazol-2-yl)piperidin-1-yl)ethan-1-one] the value was 1 to 35 µM; for `O=C(CC1CC1)N1CCCCC1c1nc(-c2ccccc2)c[nH]1` (stereo not shown) [Compound 150, 2-cyclopropyl-1-(2-(4-phenyl-1H-imidazol-2-yl)piperidin-1-yl)ethan-1-one], 1 to 35 µM.

On to `CC(C(=O)N1CCCCC1c1nc(-c2ccccc2)c[nH]1)C1CC1` (stereo not shown) [Compound 151, 2-cyclopropyl-1-(2-(4-phenyl-1H-imidazol-2-yl)piperidin-1-yl)propan-1-one], for which the EC50 is 0.05 to 0.3 µM.
